Assay results from PubChem BioAssay (NCI).
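Values below derive from 48-hour exposures of cells grown in 96-well plates, with endpoints linearly interpolated between the two concentrations bracketing the appropriate inhibition level. TGI: concentration producing complete growth inhibition.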

Tests used:
Assay in all cases: NCI tumour cell line growth inhibition, 48 h
MALME-3M melanoma = system: MALME-3M melanoma
MDA-MB-435 = system: MDA-MB-435
UACC-62 melanoma = system: UACC-62 melanoma
CCRF-CEM leukemia = system: CCRF-CEM leukemia
MOLT-4 leukemia = system: MOLT-4 leukemia
SK-MEL-5 melanoma = system: SK-MEL-5 melanoma
HS 578T breast = system: HS 578T breast
UACC-257 melanoma = system: UACC-257 melanoma
COLO 205 colon = system: COLO 205 colon
A498 renal = system: A498 renal

SMILES | TGI (MALME-3M melanoma) [µM] | TGI (MDA-MB-435) [µM] | TGI (UACC-62 melanoma) [µM] | TGI (CCRF-CEM leukemia) [µM] | TGI (MOLT-4 leukemia) [µM] | TGI (SK-MEL-5 melanoma) [µM] | TGI (HS 578T breast) [µM] | TGI (UACC-257 melanoma) [µM] | TGI (COLO 205 colon) [µM] | TGI (A498 renal) [µM]
O=C(Cn1cc(Br)c(=O)[nH]c1=O)c1ccc(-c2ccccc2)cc1 | > 100 | > 55.3 | > 100 | > 20.2 | > 27.5 | > 29.9 | > 100 | > 100 | > 49.6 | > 100
Cn1c(=Nc2ccc(Cl)cc2)sc2ccccc21 | > 100 | > 100 | > 100 | > 100 | > 100 | > 100 | > 100 | > 100 | 81.3 | > 100
Cc1ccc(-c2c(-c3ccccc3)[nH]c(C)c2C(=O)ONC(=O)c2ccccc2)cc1 | 24.7 | 5.49 | 22.2 | > 27.1 | 7.73 | 18.3 | 5.39 | 27.3 | 25.7 | 25.5
COc1cc(/C=C2\C[C@H]3[C@@H]4CCC5=CC(=O)CC[C@]5(C)[C@H]4CC[C@]3(C)C2=O)cc(OC)c1OC | > 100 | > 39.4 | > 51.4 | > 100 | > 100 | 15.9 | > 100 | > 84.2 | > 60.6 | > 100
N#CC1=C(N)N(/N=C/c2ccccc2)C(c2ccccc2)C1(C#N)C#N (stereo not given) | 4.39 | 33.7 | 29.5 | 6.12 | 5.5 | 30.9 | 66.7 | 23.4 | 4.82 | 29.3
c1ccc2cc3c(NC4=NCCO4)cccc3cc2c1 | > 100 | 98.8 | > 100 | 81.6 | > 100 | > 100 | > 100 | > 100 | > 100 | > 100
Cc1cccc2oc3c(c(=O)c12)CC(O)C(C)(C)O3 (stereo not given) | > 100 | > 100 | > 100 | > 100 | 83.2 | > 100 | > 100 | > 100 | > 100 | > 100
O=C(c1cccs1)c1nccc2c1cnc1ccccc12 | > 100 | > 100 | > 100 | > 100 | > 100 | > 100 | > 100 | > 100 | > 100 | > 100
C[C@H]1C2Cc3cc(O)ccc3[C@@]1(C)CCN2CCc1ccc(N)cc1 | 34.8 | 32.5 | > 100 | 69 | > 100 | 27.5 | > 100 | 36.5 | > 100 | > 100
COC(=O)c1c(CC(Cc2ccc3c(c2)CCCC3)C(=O)O)ccc2c1CCCC2 (stereo not given) | > 100 | > 100 | 52.4 | > 100 | > 100 | > 100 | 79.4 | 33.3 | 32.9 | 76.3
Cc1ccc2nc3n[nH]c(N)c3nc2c1 | > 100 | > 100 | > 100 | > 100 | > 100 | > 100 | > 100 | > 100 | > 100 | > 100
Nc1ccc(-c2nc3ccc(F)cc3s2)cc1Cl | > 100 | > 100 | > 100 | > 100 | > 100 | > 100 | > 100 | > 100 | > 100 | > 100
C=C1C[C@@H](O)[C@@H](Br)C(C)(C)[C@@]12C=CC(=O)CC2 | > 100 | > 100 | > 100 | > 100 | > 100 | > 100 | > 100 | > 100 | 4.34 | > 100
Cc1ccc(S(=O)C[C@](NC(=O)OCc2ccccc2)(Sc2ccccc2)C(F)F)cc1 (stereo not given in full) | 47.6 | 79.6 | 29.9 | 5.56 | 22.2 | 28 | 94.3 | 31.5 | 35.9 | 29.7
Clc1ccc(-c2cc(-c3cc4cc(Br)ccc4nc3Cl)on2)cc1 | > 50 | 32.1 | > 50 | 36.2 | 47.3 | 19.6 | > 50 | 46 | 15.4 | 41.9
Nc1nccc(NCC2(CO)CC(OCc3ccccc3)C2)n1 (stereo not given) | > 100 | > 100 | > 100 | > 100 | > 100 | > 100 | > 100 | > 100 | > 100 | > 100
O=[N+]([O-])C(/C(Cl)=C(\Cl)Br)=C(/Cl)SCc1ccccc1 | 18.7 | 3.79 | 16.5 | 6.25 | 3.35 | 15 | 50.7 | 22.1 | 4.86 | 21.2
CCC(=O)N/S(=N/S(=O)(=O)c1ccccc1)C(Cl)(Cl)Cl (stereo not given) | > 100 | > 100 | > 100 | > 100 | > 100 | > 100 | > 100 | > 100 | > 100 | > 100
COc1cc(C(=O)Oc2c(C(C)=O)sc3c2c(=O)n(-c2ccccc2)c(=S)n3-c2ccccc2)cc(OC)c1OC | 27.8 | 54.8 | 47.6 | 45.8 | 50.5 | 32.1 | 74.4 | 68.3 | 30.6 | 28.3
